Assay results reported in patent US20240383915A1, “OXAZEPINE COMPOUNDS AND USES THEREOF IN THE TREATMENT OF CANCER” (Genentech, Inc., priority 2021, published 2024).

How the values were obtained:
KRAS G12D = KRAS G12D (Homo sapiens (Human), UniProt P01116, G12D); experiment: KRas (G12D) GDP HTRF (BODIPY-GDP exchange TR-FRET); format: biochemical
Description: (§1) KRAS Biochemical Assay—BODIPY-GDP Exchange TR-FRET. Biochemical compound potencies were assessed by evaluating inhibition of SOS1-mediated nucleotide exchange in KRAS G12D. The SOS1-promoted exchange of fluorescently-labeled GDP (BODIPY-GDP) was monitored by time-resolved fluorescence resonance energy transfer (TR-FRET). Compounds solubilized in DMSO were dispensed as concentration series into 384-well white assay plates. A preformed complex of biotin-tagged recombinant human KRAS (1.5 nM mutant G12D or wild type) and 0.15 nM terbium-labeled streptavidin (CisBIO) prepared in 10 μL/well assay buffer (20 mM HEPES, pH 7.5, 50 mM NaCl, 10 mM MgCl2, 0.01% Tween-20 and 1 mM dithiothreitol) was added and allowed to incubate for 10-minutes. The reaction was initiated with the addition of 5 μL of 3 nM recombinant human SOS1 and 300 nM BODIPY-GDP in assay buffer. After a 60-minute incubation, the fluorescence was measured with excitation at 337 nm and emission at 490 and 520 nm. The TR-FRET ratio was determined as the fluorescence at 520 nm divided by the fluorescence at 490 nm multiplied by 10,000. […] The normalized TR-FRET results were plotted against compound concentration, and the data fit to a 4-parameter Hill equation to determine the IC50 values.

KRAS wild type = KRAS wild type (Homo sapiens (Human), UniProt P01116); experiment: KRas (wt) GDP HTRF (BODIPY-GDP exchange TR-FRET); format: biochemical
Description: as §1

[1] = tested on: KRAS wild type human lung adenocarcinoma cell line (PC-9); experiment: KRAS 3D-cell proliferation assay, CTG panel non G12D; format: cell-based; conditions: 168 h, CellTiter-Glo 3D, 7 days
Description: (§2) KRAS 3D-Cell Proliferation Assays. Cellular potencies of compounds were assessed by evaluating inhibition of proliferation in 3D cultures of homozygous mutant KRAS G12D human pancreatic cell lines (AsPC-1 and SW1990) as compared to a KRAS wild type human lung adenocarcinoma cell line (PC-9). Cells were seeded into 384-well black round-bottom, ultra-low attachment assay plates in 50 μL cell growth medium (RPMI-1640 with 10% fetal bovine serum and 2 mM L-glutamine). After overnight incubation at 37° C. and 5% CO2, compounds solubilized in DMSO were added as dilution series to the wells in a total volume of 150 nL (0.3% DMSO final). The cells were incubated for 7 days at 37° C. and 5% CO2. Cell proliferation was quantitated by addition of 40 μL/well of CellTiter-Glo® 3D (Promega). This reagent in combination with mechanical disruption releases the cellular ATP to promote activity in a luciferase-based enzyme/substrate chemiluminescent detection system. After a 25-minute incubation under ambient conditions with shaking and an additional 10 minutes without shaking, the contents of the wells were mixed by pipetting up and down repeatedly to disrupt the spheroids, and then the plates were centrifuged to remove bubbles. The plates were incubated for another 15 minutes under ambient conditions, and the luminescence read on a plate reader (e.g. EnVision [PerkinElmer]). […] The normalized luminescence results were plotted against compound concentration, and the data fit to a 4-parameter Hill equation to determine the IC50 values.

[2] = tested on: KRAS G12D human pancreatic cell lines (AsPC-1 and SW1990); experiment: KRAS 3D-cell proliferation assay, CTG panel (G12D); format: cell-based; conditions: 168 h, CellTiter-Glo 3D, 7 days
Description: as §2

[3] = biological target: Raf-RBD/KRAS G12D interaction (Homo sapiens (Human), UniProt P01116, G12D); experiment: KRAS G12D NanoBRET assay; format: cell-based; conditions: HCT116
Description: KRAS G12D NanoBRET Assay. Cellular target engagement was assessed by monitoring inhibition of the Raf-RBD/KRAS G12D interaction in a NanoBRET™ assay (Promega). […] Cells were seeded into 384-well white tissue culture-treated assay plates in 40 μL culture medium (RPMI-1640 with 10% fetal bovine serum, 2 mM glutamine, […] puromycin, and 4 ng/mL blasticidin) with doxycycline to induce KRAS G12D-nanoluciferase expression over 20-24 h at 37° C., 5% CO2. The culture medium was then removed and replaced with assay medium (Opti-MEM® with 4% fetal bovine serum) and 0.1 μM HaloTag618 ligand. During the subsequent 4 h incubation at 37° C., 5% CO2, the HaloTag618 ligand binds to the Halotag-labeled KRAS G12D. Compounds solubilized in DMSO were then added as dilution series to the wells in a total volume of 160 nL (0.4% DMSO final), and the plates were incubated overnight at 37° C., 5% CO2. In the final step, 10 μL NanoGlo substrate in Opti-MEM was added to each well, and the emission read at 460 nm (luciferase signal) and 610 nm (NanoBRET signal) on an EnVision plate reader (PerkinElmer). The Raf-RBD/KRAS G12D interaction results in bioluminescence resonance energy transfer (BRET) from the product of the luciferase reaction in the vicinity of the Raf-RBD to the HaloTag ligand acceptor on the KRAS G12D and generates the NanoBRET signal. Binding of compounds to KRAS G12D and disruption of its interaction with Raf-RBD results in reduction of this signal. The luciferase signal and NanoBRET signal for compound wells were divided by the average corresponding signal for DMSO control wells. Then the NanoBRET ratio was calculated by dividing the control-adjusted NanoBRET signal by the similarly adjusted luciferase signal. […] The normalized NanoBRET ratio results were plotted against compound concentration, and the data fit to a 4-parameter Hill equation to determine the IC50 values.

Chain of Raf-RBD/KRAS G12D interaction (P01116-2 other isoform, or with tags, fused parts or gaps G12D): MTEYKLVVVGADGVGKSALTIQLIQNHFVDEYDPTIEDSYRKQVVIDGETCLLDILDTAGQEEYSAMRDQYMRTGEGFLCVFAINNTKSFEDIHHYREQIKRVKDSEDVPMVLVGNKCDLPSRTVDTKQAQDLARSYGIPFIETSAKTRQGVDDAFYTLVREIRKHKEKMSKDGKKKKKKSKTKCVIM
Chain of KRAS G12D (P01116-2 other isoform, or with tags, fused parts or gaps G12D): as above
Chain of KRAS wild type (P01116-2 other isoform, or with tags, fused parts or gaps): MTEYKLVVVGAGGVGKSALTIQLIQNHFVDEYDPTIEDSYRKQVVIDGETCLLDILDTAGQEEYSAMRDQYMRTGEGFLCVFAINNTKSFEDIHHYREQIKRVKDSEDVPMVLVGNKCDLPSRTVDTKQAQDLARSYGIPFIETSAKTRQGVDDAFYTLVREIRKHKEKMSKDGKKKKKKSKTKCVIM

Row | IC50 (KRAS G12D) [nM] | IC50 (KRAS wild type) [nM] | IC50 [1] [nM] | IC50 [2] [nM] | IC50 [3] [nM] | Structure (SMILES)
1 | 1.55 | 10.8 | 2290 | 1080 | 2580 | C=C1CN2CCC[C@@]2(COc2nc3c4c(c(Cl)c(-c5nc(N)cc(C)c5C(F)(F)F)c(F)c4n2)OCCN3CCN(C)C)C1 (single isomer, unassigned) [Example 513]
2 | 11.9 | 88 | 7700 |  | ≥ 10000 | C=C1CN2CCC[C@@]2(COc2nc3c4c(c(F)c(-c5nc(N)cc(C)c5C(F)(F)F)c(F)c4n2)OCCN3CCN(C)C)C1 (single isomer, unassigned) [Example 523]
3 | 3460 | 15100 | 18500 | 14900 | ≥ 10000 | Cc1cc(N)nc(-c2cc3ncnc4c3c(c2Cl)OCCN4CCN2CCOCC2)c1C(F)(F)F [Example 504]
4 | 13.6 | 240 |  |  | ≥ 10000 | Cc1cc(N)nc(-c2cc3nc(OCC45CCCN4CCC5)nc4c3c(c2Cl)OCCN4CCN(C)C)c1C(F)(F)F [Example 510]
5 | 6.07 | 48.4 | 2960 | 2240 | 8050 | C=C1CN2CCC[C@@]2(COc2nc3c4c(c(Cl)c(-c5nc(N)cc(C)c5C(F)(F)F)cc4n2)OCCN3CCN(C)C)C1 [Example 511]

Row | Structure (SMILES) | IC50 (KRAS G12D) [nM] | IC50 (KRAS wild type) [nM] | IC50 [1] [nM] | IC50 [2] [nM] | IC50 [3] [nM]
6 | Cc1cc(N)nc(-c2cc3ncnc4c3c(c2Cl)OCCN4CCN(C)CCO)c1C(F)(F)F [Example 502, 2-((2-(9-(6-Amino-4-methyl-3-(trifluoromethyl)pyridin-2-yl)-8-chloro-5,6-dihydro-4H-[1,4]oxazepino[5,6,7-de]quinazolin-4-yl)ethyl)(methyl)amino)ethan-1-ol] | 2770 | 71400 | 7880 | 9650 | ≥ 10000
